The structures appear in SMILES notation.

Holding throughout (type): in vivo, mice
Experiment [1] concerns MCA205 tumors. Nature of the experiment: Tumor growth in fibrosarcoma model, ketotifen, doxorubicin, anti-PD-L1. Conditions: for tumor growth: monotherapy. How it is done:
(§1) A fibrosarcoma syngeneic tumor model was generated by subcutaneous implantation of 2.5×10^5 MCA205 cells in 50 μL of serum-free medium into the flank of 6-week old C57BL/6 female mice. A osteosarcoma syngeneic tumor model was generated by implanting K7M2 wt tumor chunks into the fat pad of 6-week old BALB/c female mice.
(§2) Mice bearing sarcoma tumors were pre-treated with 10 mg/kg daily ketotifen followed by three or four doses of doxorubicin and/or an immune checkpoint inhibitor anti-PD-L1 antibody. Mouse monoclonal anti-PD-L1 (B7-H1, clone 10F.9G2, BioXCell) was used. Doxorubicin hydrochloride was prepared as a ready-made solution of 2 mg/ml. Anti-PD-L1 antibody was administered at a final dose of 10 mg/kg and doxorubicin at 5 mg/kg.
Mice bearing MCA205 tumors were pretreated with daily ketotifen 10 mg/kg or equal volume of diluent (control group) once the average tumor size reached 40 mm^3, prior to the neoadjuvant treatment. Doxorubicin and anti-PD-L1 combination treatment initiated when tumors reached an average size of 150 mm^3 (day 7) and was administered as i.p. injections every three days (day 7, 10, and 13) for three doses. Daily ketotifen continued until completion of doxorubicin-anti-PD-L1 combination treatment.
(§3) Primary tumors were resected and stored when they reached an average size of 700 mm^3 on day 16 and mice were monitored for re-challenge experiments. Similarly, K7M2 wt tumors were pretreated with daily ketotifen 10 mg/kg or equal volume of diluent (control group) once the average tumor size reached 80 mm^3 (day 18) and continued until completion of neoadjuvant treatment. Doxorubicin and anti-PD-L1 combination treatment started when tumors reached an average size of 150 mm^3 (day 22) and repeated on day 25, 28 and 31. Study ended when tumors reached a mean volume of 550 mm 3 (day 33). Mice were sacrificed and tumors were collected for ex vivo analysis.

Experiment [2] concerns K7M2 wt tumors. Nature of the experiment: Tumor growth in osteosarcoma model, ketotifen, doxorubicin, anti-PD-L1. Conditions: for tumor growth: monotherapy. The protocol: as §1, §2, §3
The subject of experiment [3] is MCA205 fibrosarcoma tumors. The experiment in a line: Shear wave elastography of tumor elastic modulus, ketotifen. The text has this:
The mechanotherapeutic potential of ketotifen in reducing matrix stiffness was primarily assessed non-invasively and longitudinally using ultrasound elastography. Assessment of tumor elastic modulus was […] via shear wave elastography using a Philips EPIQ Elite Ultrasound scanner with an eL 18-4 linear array.

For experiment [4], the system named is K7M2 wt tumors. The experiment in a line: Contrast-enhanced ultrasound of vascular and functional perfusion, ketotifen. As to conditions: during ketotifen treatment. How it is done: (§4) Vascular perfusion and functional perfusion were measured simultaneously during the course of ketotifen treatment, using contrast-enhanced ultrasound in mice bearing MCA205 and mice bearing K7M2 wt tumors.

For experiment [5], the system named is MCA205 tumors. The description is as above. Conditions: during ketotifen treatment. The protocol:
as §4

The subject of experiment [6] is MCA205 tumors. Nature of the experiment: Interstitial fluid pressure (IFP), wick-in-needle technique, ketotifen. How it is done:
Interstitial fluid pressure (IFP) was measured in vivo using the “wick-in-needle” technique after mice were anesthetized with i.p. injection of Avertin and prior to tumor excision. Additional information regarding the wick-in-needle technique is described in Dong et al., Involvement of mast cell chymase in burn wound healing in hamsters 2013; 5:643-7 and Shankaran et al. IFNγ and lymphocytes prevent primary tumour development and shape tumour immunogenicity 2001; 410:1107-11, the contents of which are incorporated herein by reference in their entirety.

Setting [7] is: anti-PD-L1 (10 mg/kg) and/or doxorubicin (5 mg/kg) combined with 10 mg/kg daily ketotifen.

In the case of `COc1cccc2c1C(=O)c1c(O)c3c(c(O)c1C2=O)C[C@@](O)(C(=O)CO)C[C@@H]3O[C@H]1C[C@H](N)[C@H](O)[C@H](C)O1` [doxorubicin], the tumor growth result in the experiment with MCA205 tumors [1] and with K7M2 wt tumors [2] was “Neither anti-PD-L1 nor doxorubicin monotherapies significantly affected tumor growth” throughout.

On to `CN1CCC(=C2c3ccccc3CC(=O)c3sccc32)CC1` [ketotifen], for which the antitumor response entry in the experiment on MCA205 tumors [1] (setting [7]) and in the experiment with K7M2 wt tumors [2] (setting [7]) was “induced a significant antitumor response” in each case. Besides, the tumor growth result in the experiment with MCA205 tumors [1] and in the experiment with K7M2 wt tumors [2] was “no antitumor effect” throughout. In experiment [3] (10 mg/kg ketotifen), the “Young's modulus” value came to 20 kPa. Moreover, in experiment [3] (10 mg/kg ketotifen compared with other doses), the “tissue stiffness (ultrasound elastography)” value was “reduced tissue stiffness the most”. The functional perfusion entry in the experiment on K7M2 wt tumors [4] and with MCA205 tumors [5] was “significant increase” throughout. In addition, the vascular perfusion entry with K7M2 wt tumors [4] and with MCA205 tumors [5] was “significant increase” each time. In addition, the IFP result in the experiment on MCA205 tumors [6] (10 mg/kg dose of ketotifen compared with other doses) is listed as “greatest effect”; in the experiment with MCA205 tumors [6] (all doses of ketotifen, daily for 7 days), “reduced the IFP”.

These data come from patent US20240024317A1, “CANCER TREATMENT USING BOSENTAN IN COMBINATION WITH A CHECKPOINT INHIBITOR” (Materia Therapeutics Inc., priority 2020, published 2024).
